# Results reported in patent US9469653B2, “Pharmaceutical compositions for preventing or treating degenerative brain disease and method of screening the same” (KOREA INSTITUTE OF SCIENCE AND TECHNOLOGY, priority 2011, dated 2016).
# Biological target: T1, human MAO-B enzyme (Homo sapiens (Human), UniProt P27338)
# Test: Screening of MAO-B activity inhibition (Amplex Red monoamine oxidase assay kit, benzylamine substrate)
# Type: biochemical
# Conditions: 10 uM of the synthesized compound, pargyline-corrected
# Description: A stock solution was prepared using a human MAO-B enzyme (purchased from Aldrich) and a Amplex® Red monoamine oxidase assay kit according to a preparation manual. The kit includes a 5× reaction buffer, an Amplex® red reagent (1 mg), HRP, DMSO, H2O2, p-tyramine (substrate of MAO-A, B), benzylamine (substrate of MAO-B), clorgiline (inhibitor of MAO-A), and pargyline (inhibitor of MAO-B). Among these reagents in the kit, benzylamine was used as a substrate for MAO-B, and pargyline was used as an MAO-B inhibitor. A solution as overall substrates was prepared as follows. 200 ul of a solution of 1 mg of Amplex® red sufficiently dissolved in 200 ul of DMSO, 100 ul of a mixed solution of HRP and 1 ml of a 1× buffer, 200 ul of a solution of benzylamine dissolved in 1.2 ml of dH2O were added to 9.5 ml of a 1× buffer to reach a total volume of 10 mL, which is sufficient for 100 wells. 0.5 ul of a mixture of MAO-B inhibitor pargyline and 1 ml of dH2O was put into each well. First, the activity of MAO-B was determined using 10 uM of the synthesized compound.
# 96 wells were injected with positive and negative types, and the wile type. The positive type included only substrate and hydrogen peroxide, and the negative type included only substrate. For the wild type, corresponding wells were injected with the enzyme, substrate, and MAO-B inhibitor, but with no synthesized compound. Afterward, 2 ul of the synthesized compound (1 mM) was added into each well, and the human MAO-B enzyme was put only into the 1st row of wells. 0.5 ug of the human MAO-B was put into each well along with 100 ul of a 1× buffer. The human MAO-B enzyme was put into the 2nd row of the wells along with 0.5 ul of a pargyline, the MAO-B inhibitor. To reduce an experimental error for accuracy, the test was repeated three times for each compound. After 30 minutes, 100 ul of the substrate solution was added into each well in a darkroom. The test was performed in the darkroom due to light sensitivity of the Amplex® reagent. Finally, a total volume of the reaction solution per well reached 200 ul. After about 2 to 3 hours, chromophoric degrees of the samples were measured. A variation in data values for the 1st and 2nd rows of the wells indicates the pure reaction activity of the MAO-B enzyme with the substrate. Using the samples with the synthesized compound the remaining activity of MAO-B after inhibited by the synthesized compound may be determined. This is because the activities of the other enzymes excluding the MAO-B enzyme may be excluded through this method. Compounds with high inhibitory activity at a concentration of 10 uM were screened from among the synthesized compounds at a compound concentration of 10 uM.
# T1 sequence (P27338 whole entry): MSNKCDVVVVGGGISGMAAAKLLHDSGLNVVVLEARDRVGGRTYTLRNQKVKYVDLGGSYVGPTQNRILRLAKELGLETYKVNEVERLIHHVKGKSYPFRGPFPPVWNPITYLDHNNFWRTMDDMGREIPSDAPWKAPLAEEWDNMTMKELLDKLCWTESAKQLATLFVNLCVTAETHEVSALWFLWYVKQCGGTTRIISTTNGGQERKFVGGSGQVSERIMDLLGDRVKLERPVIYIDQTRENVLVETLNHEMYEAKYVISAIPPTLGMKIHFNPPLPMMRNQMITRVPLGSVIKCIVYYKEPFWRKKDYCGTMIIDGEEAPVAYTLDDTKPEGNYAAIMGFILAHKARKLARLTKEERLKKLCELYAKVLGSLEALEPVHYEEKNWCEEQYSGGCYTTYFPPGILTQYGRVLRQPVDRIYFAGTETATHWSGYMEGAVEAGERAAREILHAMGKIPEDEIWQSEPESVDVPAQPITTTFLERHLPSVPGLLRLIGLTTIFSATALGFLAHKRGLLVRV
row,Remaining activity of MAO-B (%),SMILES
1,51,"CNc1ccc2nc(-c3ccccc3)oc2n1 [Example 5-73, N-methyl-2-phenyloxazolo[5,4-b]pyridine-5-amine]"
2,56.0,Clc1ccc(-c2nc3ccc(N4CCCCC4)nc3o2)cc1 [Example 5-46]
3,55.4,"Clc1cccc(-c2nc3ccc(NCc4ccccc4)nc3o2)c1 [Example 5-60, N-benzyl-2-(3-chlorophenyl)oxazolo[5,4-b]pyridine-5-amine]"
4,−1.8,"c1ccc(-c2nc3ccc(N4CCCCCC4)nc3s2)cc1 [Example 5-55, 5-(azepane-1-yl)-2-phenylthiazolo[5,4-b]pyridine]"
5,108.8,CN(Cc1ccccc1)c1ccc2nc(-c3ccc(C#N)cc3)oc2n1 [Example 5-72]
6,15.8,"COc1ccc(-c2nc3ccc(N4CCCCC4)nc3o2)cc1 [Example 5-49, 2-(4-methoxyphenyl)-5-(piperidine-1-yl)oxazolo[5,4-b]pyridine]"
7,−7.8,"Cc1cccc(-c2nc3ccc(N4CCCCC4)nc3o2)c1 [Example 5-42, 5-(piperidine-1-yl)-2-m-tolyloxazolo[5,4-b]pyridine]"
8,46.4,"Clc1ccc(-c2nc3ccc(NCc4ccccc4)nc3o2)cc1 [Example 5-61, N-benzyl-2-(4-chlorophenyl)oxazolo[5,4-b]pyridine-5-amine]"
9,10.1,"N#Cc1cccc(-c2nc3ccc(N4CCCCC4)nc3o2)c1 [Example 5-44, 3-(5-(piperidine-1-yl)oxazolo[5,4-b]pyridine-2-yl)benzonitrile]"
10,11.1,"c1ccc(-c2nc3ccc(NC4CCCCC4)nc3o2)cc1 [Example 5-80, N-cyclohexyl-2-phenyloxazolo[5,6-b]pyridine-5-amine]"
11,28.6,"Brc1ccc(-c2nc3ccc(N4CCCCC4)nc3o2)cc1 [Example 5-47, 2-(4-bromophenyl)-5-(piperidine-1-yl)oxazolo[5,4-b]pyridine]"
12,101.2,"CN(Cc1ccccc1)c1ccc2nc(-c3ccc([N+](=O)[O-])cc3)oc2n1 [Example 5-71, N-benzyl-N-methyl-2-(4-nitrophenyl)oxazolo[5,4-b]pyridine-5-amine]"
13,1.7,"c1ccc(-c2nc3ccc(N4CCCC4)nc3s2)cc1 [Example 5-31, 2-phenyl-5-(pyrrolidine-1-yl)thiazolo[5,4-b]pyridine]"
14,52.4,"COc1ccc(-c2nc3ccc(N(C)Cc4ccccc4)nc3o2)cc1 [Example 5-70, N-benzyl-2-(4-methoxyphenyl)-N-methyloxazolo[5,4-b]pyridine-5-amine]"
15,0.6,"Clc1ccccc1-c1nc2ccc(N3CCCCC3)nc2o1 [Example 5-39, 2-chlorophenyl-5-(piperidine-1-yl)oxazolo[5,4-b]pyridine]"
16,84.1,"Cc1ccc(-c2nc3ccc(N(C)Cc4ccccc4)nc3o2)cc1 [Example 5-69, N-benzyl-N-methyl-2-p-tolyloxazolo[5,4-b]pyridine-5-amine]"
17,4.14,"CNc1ccc2nc(-c3ccc(Cl)cc3)oc2n1 [Example 5-77, 2-(4-chlorophenyl)-N-methyloxazolo[5,4-b]pyridine-5-amine]"
18,51.9,"Fc1cccc(-c2nc3ccc(NCc4ccccc4)nc3o2)c1 [Example 5-59, N-benzyl-2-(3-fluorophenyl)oxazolo[5,4-b]pyridine-5-amine]"
19,33.5,Brc1ccc(-c2nc3ccc(N4CCCC4)nc3o2)cc1 [Example 5-36]
20,14.2,"Clc1cccc(-c2nc3ccc(N4CCCC4)nc3o2)c1 [Example 5-33, 2-chlorophenyl-5-(pyrrolidine-1-yl)oxazolo[5,4-b]pyridine]"
21,71.2,"N#Cc1ccc(-c2nc3ccc(N4CCCCC4)nc3o2)cc1 [Example 5-50, 4-(5-(piperidine-1-yl)oxazolo[5,4-b]pyridine-2-yl)benzonitrile]"

row,Remaining activity of MAO-B (%),SMILES
1,27.2,"CNc1ccc2nc(-c3ccccc3)sc2n1 [Example 5-74, N-methyl-2-phenylthiazolo[5,4-b]pyridine-5-amine]"
2,47.3,"CN(Cc1ccccc1)c1ccc2nc(-c3cccc(Cl)c3)oc2n1 [Example 5-67, N-benzyl-2-(3-chlorophenyl)-N-methyloxazolo[5,4-b]pyridine-5-amine]"
3,47.8,"CN(Cc1ccccc1)c1ccc2nc(-c3ccccc3)sc2n1 [Example 5-64, N-benzyl-N-methyl-2-phenylthiazole[5,4-b]pyridine-5-amine]"
4,3.09,"c1ccc(-c2nc3ccc(N4CCCCC4)nc3o2)cc1 [Example 5-37, 2-phenyl-5-(piperidine-1-yl)oxazolo[5,4-b]pyridine]"
5,37.2,"Clc1cccc(-c2nc3ccc(NC4CCCC4)nc3o2)c1 [Example 5-51, 2-(3-chlorophenyl)-N-cyclopentyloxazolo[5,4-b]pyridine-5-amine]"
6,57.5,"c1ccc(-c2nc3ccc(N4CCCCCC4)nc3o2)cc1 [Example 5-54, 5-(azepane-1-yl)-2-phenyloxazolo[5,4-b]pyridine]"
7,63.1,"c1ccc(CNc2ccc3nc(-c4ccccc4)oc3n2)cc1 [Example 5-57, N-benzyl-2-phenyloxazolo[5,4-b]pyridine-5-amine]"
8,61.4,"Fc1ccc(-c2nc3ccc(N4CCCCCC4)nc3o2)cc1 [Example 5-56, 5-(azepane-1-yl)-2-(4-fluorophenyl)oxazolo[5,4-b]pyridine]"
9,53.2,"CN(Cc1ccccc1)c1ccc2nc(-c3ccccc3)oc2n1 [Example 5-63, N-benzyl-N-methyl-2-phenyloxazolo[5,4-b]pyridine-5-amine]"
10,17,"Clc1cccc(-c2nc3ccc(N4CCCCC4)nc3o2)c1 [Example 5-41, 2-chlorophenyl-5-(piperidine-1-yl)oxazolo[5,4-b]pyridine]"
11,42.7,"c1ccc(-c2nc3ccc(NCCN4CCOCC4)nc3s2)cc1 [Example 5-62, N-(2-morpholinoethyl)-2-phenylthiazolo[5,4-b]pyridine-5-amine]"
12,42.4,"Clc1ccc(-c2nc3ccc(N4CCCC4)nc3o2)cc1 [Example 5-35, 2-chlorophenyl-5-(pyrrolidine-1-yl)oxazolo[5,4-b]pyridine]"
13,−21.5,O=[N+]([O-])c1cccc(-c2nc3ccc(N4CCCCC4)nc3o2)c1 [Example 5-43]
14,84.5,"CNc1ccc2nc(-c3ccc(OC)cc3)oc2n1 [Example 5-79, 2-(4-methoxyphenyl)-N-methyloxazolo[5,4-b]pyridine-5-amine]"
15,43,"c1ccc(-c2nc3ccc(NC4CCCCC4)nc3s2)cc1 [Example 5-52, N-cyclohexyl-2-phenylthiazolo[5,4-b]pyridine-5-amine]"
16,46.2,"Cc1ccc(-c2nc3ccc(N4CCCCC4)nc3o2)cc1 [Example 5-48, 5-(piperidine-1-yl)-2-p-tolyloxazolo[5,4-b]pyridine]"
17,84.1,"CN(Cc1ccccc1)c1ccc2nc(-c3ccccc3Cl)oc2n1 [Example 5-65, N-benzyl-2-(2-chlorophenyl)-N-methyloxazolo[5,4-b]pyridine-5-amine]"
18,45.8,"CNc1ccc2nc(-c3ccc(C)cc3)oc2n1 [Example 5-78, N-methyl-2-p-tolyloxazolo[5,4-b]pyridine-5-amine]"
19,43,"CN(Cc1ccccc1)c1ccc2nc(-c3cccc(F)c3)oc2n1 [Example 5-66, N-benzyl-2-(3-fluorophenyl)-N-methyloxazolo[5,4-b]pyridine-5-amine]"
20,39.3,"Clc1cccc(-c2nc3ccc(NC4CCCCC4)nc3o2)c1 [Example 5-53, 2-(3-chlorophenyl)-N-cyclohexyloxazolo[5,4-b]pyridine-5-amine]"

# Biological target: T1, human MAO-B enzyme
# Test: as above
# Type: biochemical
# Conditions: activity assay at 0.001, 0.01, 0.1, 1 and 10 uM
row,IC50 [µM],SMILES
1,1.52,"COc1ccc(-c2nc3ccc(N4CCCCC4)nc3o2)cc1 [Example 5-49, 2-(4-methoxyphenyl)-5-(piperidine-1-yl)oxazolo[5,4-b]pyridine]"
2,0.096,"Brc1ccc(-c2nc3ccc(N4CCCCC4)nc3o2)cc1 [Example 5-47, 2-(4-bromophenyl)-5-(piperidine-1-yl)oxazolo[5,4-b]pyridine]"
3,7.3,"c1ccc(-c2nc3ccc(N4CCCC4)nc3s2)cc1 [Example 5-31, 2-phenyl-5-(pyrrolidine-1-yl)thiazolo[5,4-b]pyridine]"
4,13.2,"Clc1ccccc1-c1nc2ccc(N3CCCCC3)nc2o1 [Example 5-39, 2-chlorophenyl-5-(piperidine-1-yl)oxazolo[5,4-b]pyridine]"
5,3.02,"CNc1ccc2nc(-c3ccc(Cl)cc3)oc2n1 [Example 5-77, 2-(4-chlorophenyl)-N-methyloxazolo[5,4-b]pyridine-5-amine]"
6,15.7,"CNc1ccc2nc(-c3ccccc3)sc2n1 [Example 5-74, N-methyl-2-phenylthiazolo[5,4-b]pyridine-5-amine]"
7,68.2,"CN(Cc1ccccc1)c1ccc2nc(-c3cccc(Cl)c3)oc2n1 [Example 5-67, N-benzyl-2-(3-chlorophenyl)-N-methyloxazolo[5,4-b]pyridine-5-amine]"
8,2,"c1ccc(-c2nc3ccc(N4CCCCC4)nc3o2)cc1 [Example 5-37, 2-phenyl-5-(piperidine-1-yl)oxazolo[5,4-b]pyridine]"
